Results: publication PMC9136578 (Acta Pharmaceutica Sinica. B, 2021)
pEC50: −log10 of the molar value. Numbered stars: 1 amine (or outer) side, 2 acyl side, 3 side chain; on linkers, the order of the positions; unused ones are H or OH. Square brackets hold non-standard residues; d marks the D form. Side chains are listed from the residue outwards. Peptide text beside a SMILES is read from it. * marks the point of attachment. C18 diacid = O=C(O)CCCCCCCCCCCCCCCCC(=O)*; γGlu = O=C(O)[C@H](CCC(=O)[*:2])N[*:1]; PEG2 = NCCOCCOCCC(=O)O

Biological target: human GLP-1R (Homo sapiens, UniProt P43220)
Sequence (P43220 24-463): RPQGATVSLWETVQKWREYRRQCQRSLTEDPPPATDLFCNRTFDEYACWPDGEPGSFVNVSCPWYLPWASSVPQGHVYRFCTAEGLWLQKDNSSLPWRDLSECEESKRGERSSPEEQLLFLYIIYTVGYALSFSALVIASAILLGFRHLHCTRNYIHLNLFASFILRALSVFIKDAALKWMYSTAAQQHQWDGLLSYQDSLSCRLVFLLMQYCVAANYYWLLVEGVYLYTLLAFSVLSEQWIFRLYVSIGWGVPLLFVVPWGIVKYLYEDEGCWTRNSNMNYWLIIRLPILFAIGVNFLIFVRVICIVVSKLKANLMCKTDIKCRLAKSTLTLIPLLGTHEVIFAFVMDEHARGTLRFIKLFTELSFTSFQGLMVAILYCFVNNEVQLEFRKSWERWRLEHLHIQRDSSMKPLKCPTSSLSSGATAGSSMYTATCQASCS
Experiment: CRE-driven luciferase reporter
Type: cell-based

Structure (SMILES) | pEC50
CC(C)C[C@H](NC(=O)[C@H](CC(C)C)NC(=O)[C@H](Cc1c[nH]c2ccccc12)NC(=O)[C@H](CCC(=O)O)NC(=O)[C@@H](NC(=O)[C@H](Cc1ccccc1)NC(=O)[C@H](CC(=O)O)NC(=O)[C@H](Cc1c[nH]cn1)NC(=O)[C@H](C)NC(=O)[C@H](C)NC(=O)[C@H](CCCCNC(=O)CCOCCOCCNC(=O)CCOCCOCCNC(=O)CC[C@H](NC(=O)CCCCCCCCCCCCCCCCC(=O)O)C(=O)O)NC(=O)[C@H](CO)NC(=O)[C@H](CC(=O)O)NC(=O)[C@H](CC(C)C)NC(=O)[C@H](Cc1ccc(O)cc1)NC(=O)[C@H](CCCCN)NC(=O)[C@H](CO)NC(=O)[C@H](Cc1ccc(O)cc1)NC(=O)[C@H](CC(=O)O)NC(=O)[C@H](CO)NC(=O)[C@@H](NC(=O)[C@H](Cc1ccccc1)NC(=O)[C@@H](NC(=O)CNC(=O)[C@H](CCC(N)=O)NC(=O)[C@@H](CO)NC(=O)[C@@H](N)Cc1c[nH]cn1)[C@@H](C)O)[C@@H](C)O)C(C)C)C(=O)N[C@@H](CCCNC(=N)N)C(=O)N[C@@H](C)C(N)=O [TA002] (H-H[dS]QGTFTSDYSKYLDSK([PEG2-PEG2-γGlu-C18 diacid])AAHDFVEWLLRA-NH2) | 9.49
CC(C)C[C@H](NC(=O)[C@H](CC(C)C)NC(=O)[C@H](Cc1c[nH]c2ccccc12)NC(=O)[C@H](CCC(=O)O)NC(=O)[C@@H](NC(=O)[C@H](Cc1ccccc1)NC(=O)[C@H](CC(=O)O)NC(=O)[C@H](Cc1c[nH]cn1)NC(=O)[C@H](C)NC(=O)[C@H](C)NC(=O)[C@H](CCCCNC(=O)CCOCCOCCNC(=O)CCOCCOCCNC(=O)CC[C@H](NC(=O)CCCCCCCCCCCCCCCCC(=O)O)C(=O)O)NC(=O)[C@H](CO)NC(=O)[C@H](CC(=O)O)NC(=O)[C@H](CC(C)C)NC(=O)[C@H](Cc1ccc(O)cc1)NC(=O)[C@H](CCCCN)NC(=O)[C@H](CO)NC(=O)[C@H](Cc1ccc(O)cc1)NC(=O)[C@H](CC(=O)O)NC(=O)[C@H](CO)NC(=O)[C@@H](NC(=O)[C@H](Cc1ccccc1)NC(=O)[C@@H](NC(=O)CNC(=O)[C@H](CCC(N)=O)NC(=O)[C@@H](CO)NC(=O)[C@@H](N)Cc1c[nH]cn1)[C@@H](C)O)[C@@H](C)O)C(C)C)C(=O)N[C@@H](CC(N)=O)C(=O)NCC(=O)NCC(=O)N1CCC[C@H]1C(=O)N[C@@H](CO)C(=O)N[C@@H](CO)C(=O)NCC(=O)N[C@@H](C)C(=O)N1CCC[C@H]1C(=O)N1CCC[C@H]1C(=O)N1CCC[C@H]1C(=O)N[C@@H](CO)C(N)=O [TA004] (H-H[dS]QGTFTSDYSKYLDSK([PEG2-PEG2-γGlu-C18 diacid])AAHDFVEWLLNGGPSSGAPPPS-NH2) | 9.72
CCCCCCCCCCCCCCCCCC(=O)NCCOCCOCCC(=O)NCCOCCOCCC(=O)NCCCC[C@H](NC(=O)[C@H](CC(=O)O)NC(=O)[C@H](CO)NC(=O)[C@@H](NC(=O)[C@H](Cc1ccccc1)NC(=O)[C@@H](NC(=O)CNC(=O)[C@H](CCC(N)=O)NC(=O)[C@@H](CO)NC(=O)[C@@H](N)Cc1c[nH]cn1)[C@@H](C)O)[C@@H](C)O)C(=O)N[C@@H](CO)C(=O)N[C@@H](CCCCN)C(=O)N[C@@H](Cc1ccc(OS(=O)(=O)F)cc1)C(=O)N[C@@H](CC(C)C)C(=O)N[C@@H](CC(=O)O)C(=O)NC(C)(C)C(=O)N[C@@H](CCCNC(=N)N)C(=O)N[C@@H](CCCNC(=N)N)C(=O)N[C@@H](C)C(=O)N[C@@H](CCC(N)=O)C(=O)N[C@@H](CC(=O)O)C(=O)N[C@@H](Cc1ccccc1)C(=O)N[C@H](C(=O)N[C@@H](CCC(N)=O)C(=O)N[C@@H](Cc1c[nH]c2ccccc12)C(=O)N[C@@H](CC(C)C)C(=O)N[C@@H](CCSC)C(=O)N[C@@H](CC(N)=O)C(=O)N[C@H](C(=O)NCC(=O)NCC(=O)N1CCC[C@H]1C(=O)N[C@@H](CO)C(=O)N[C@@H](CO)C(=O)NCC(=O)N[C@@H](C)C(=O)N1CCC[C@H]1C(=O)N1CCC[C@H]1C(=O)N1CCC[C@H]1C(=O)N[C@@H](CO)C(N)=O)[C@@H](C)O)C(C)C [TA006] | 8.60
